The data set can be described thus: Stability of bis azainositol hafnium complexes in aqueous buffered solution on heat treatment (steam autoclave). The format is physicochemical. The settings on record: aqueous buffered solution pH 7.4, 5 mmol/L, 121° C. for 45 minutes in steam autoclave; HPLC peak area ratio x metal concentration ratio (ICP-OES). The method, then:
The stability of bis azainositol hafnium complexes was determined in aqueous, buffered solution at pH 7.4. The solution containing 5 mmol/L of the compound in a tightly sealed vessel was heated to 121° C. for 45 minutes in a steam autoclave. The hafnium concentration of the solution was determined by ICP-OES before and after heat treatment. The integrity of the compound was determined by HPLC analysis before and after heat treatment. Absolute stability was calculated as the ratio of the peak area of the compound after and before the heat treatment multiplied with the ratio of the metal concentration of the solution after and before heat treatment.
HPLC system: Column 1: Reversed phase C18.
Solvent A1: 0.5 mM tetrabutylammonium phosphate pH 6 Solvent A2: 0.1% formic acid in water Solvent B1: methanol Solvent B2: acetonitrile
The use of columns, solvents, flow rate and gradients is detailed in the table below. Detector: element specific detection by ICP-MS, running at m/z 180, the most abundant isotope of hafnium
On to “Bis[μ3-2,2′-({[1R-(1α,2α,3α,4α,5α,6α)]-2,4,6-trihydroxylato-1κ^2O^2O^6,2κ^2O^2O^4,3κ^2O^4O^6-5-[(2-hydroxylato-3κO-ethyl)amino-3κN^5]cyclohexane-1,3-diyl}diimino-1κN^1,2κN^3)di-acetato-1κO,2κO′]trihafnium (IV) [Example 8]”, for which the Stability turned out to be 100%.

Take “Bis[μ3-2,2′-({[1R-(1α,2α,3α,4α,5α,6α)]-5-[(2-carboxylato-3κO-ethyl)amino-3κN^5]-2,4,6-trihydroxylato-1κ^2O^2O^6,2κ^2O^2O^4,3κ^2O^4O^6-cyclohexane-1,3-diyl}diimino-1κN^1,2κN^3)di-acetato-1κO,2κO′]trihafnium(IV) [Example 10]”: the Stability is listed as 101%.

Turning to “Bis[μ3-3,3′-({[1R-(1α,2α,3α,4α,5α,6α)]-2,4,6-trihydroxylato-1κ^2O^2O^6,2κ^2O^2O^4,3κ^2O^4O^6-5-[(2-hydroxylato-3κO-ethyl)amino-3κN^5]cyclohexane-1,3-diyl}diimino-1κN1,2κN^3)di-propanoato-1κO,2κO′]trihafnium (IV) [Example 3]”, the Stability is 100%.

On to “Bis[μ3-3,3′-({[1R-(1α,2α,3α,4α,5α,6α)]-5-[(2S,3R)(3,4-dihydroxy-2-hydroxylato-3κO-butyl)amino-3κN^5]-2,4,6-trihydroxylato-1κ^2O^2O^6,2κ^2O^2O^4,3κ^2O^4O^6-cyclohexane-1,3-diyl}diimino-1κN^1,2κN^3)dipropanoato-1κO,2κO′]trihafnium(IV) [Example 5]”, for which the Stability stood at 101%.

With “Hydroxido-3κO-[μ3-3,3′,3″-({[1R-(1α,2α,3α,4α,5α,6α)]-2,4,6-trihydroxylato-1κ^2O^2O^6, 2κ^2O^2O^4,3κ^2O^4O^6-cyclohexane-1,3,5-triyl}tris{methylimino-1κN^1,2κN^3,3κN^5}) tri-propanoato-1κO,2κO′,3κO″][μ3-3,3′-({[1R-(1α,2α,3α,4α,5α,6α)]-2,4,6-trihydroxylato-1κ^2O^2O^6,2κ^2O^2O^4,3κ^2O^4O^6-5-[methylamino-3κN^5]cyclohexane-1,3-diyl}bis{methyl-imino-1κN^1,2κN^3})dipropanonato-1κO,2κO′]trihafnium (IV) [Example 1]”, the Stability was found to be 100%.

The values above are taken from US20160060209A1, “BIS A[…] COMPLEXES FOR X-RAY IMAGING” (BAYER PHARMA AKTIENGESELLSCHAFT üß, priority 2013, published 2016).
